Laboratory results published in paper PMC11614538, “The proline-rich antimicrobial peptide B7-005: low bacterial resistance, safe for human cells and effective in zebrafish embryo bacteraemia model” (Open Biology, 2024).
Where two headings read alike, the source gives them in different places. Residues, ends and D or L forms follow the SMILES beside them.

Assays:
HaCaT cells = assay: Cell viability MTT, HaCaT; format: cell-based, human; conditions: 24 h, DMEM, n ≥ 9
Procedure: Chronic lymphocytic leukaemia-derived MEC-1 cells were cultured in suspension using complete RPMI (EuroClone), supplemented with 100 U ml^−1 penicillin (Sigma), 100 μg ml^−1 streptomycin (Sigma), 2 mM L-glutamine and 10% (v/v) foetal bovine serum (FBS, EuroClone). A549 human lung carcinoma epithelial cells and immortalized human keratinocytes (HaCaT) were grown in adhesion in complete high glucose Dulbecco’s MEM (DMEM, EuroClone) supplemented with 100 U ml^−1 penicillin (Sigma), […] streptomycin (Sigma), 2 mM L-glutamine and 10% (v/v) of FBS. […] All cell lines were counted in a Bürker chamber and diluted to the desired working concentrations.
Cell viability was evaluated by tetrazolium salt (MTT, or MTS for HUVECs only) tests. […] The next day, absorbance was measured at 570 nm using a Nanoquant Infinite-M200Pro plate reader (Tecan, Switzerland).
HUVECs, 7500 cells per well, were seeded in HESFM with 10% FBS in a 96-well flat-bottomed microtitre plate (EuroClone SpA, Italy). […] The plate was then incubated for 2 h at 37°C in a humidified 5% CO2 atmosphere, and the absorbance was measured at 490 nm, using a spectrophotometer (PowerWaveX, Bio-Tek Instruments). The cytotoxicity was calculated by comparing the absorbance of peptide-treated samples with that of the untreated control and expressed in percentage of vitality. […]

[1] = tested on: osteosarcoma cell line MG-63; conditions: cited from earlier work
From the text: In this study, the response of cells to B7-005 varied according to the cell type. The tumoral MEC-1 cells were the most sensitive to the cytotoxic effects of the peptide, displaying even higher sensitivity to B7-005 than observed in a previous study. However, we note that in the previous study, the peptides were generated by SPOT synthesis and therefore were of lower-grade purification, which likely explains the differences observed with our study. […] These cells were the only non-immortalized or tumor ...

[2] = ref [20]; cited from earlier work
From the text: The bioavailability in human serum of a peptide intended for clinical systemic use is a critical parameter for the success of peptide-based drugs. […] However, irreversible sequestration of the peptide by serum proteins at higher serum concentrations could also impair its antimicrobial activity. To check if the peptide maintained its availability under conditions closer to the clinical o ...

In the case of CC[C@H](C)[C@H](NC(=O)[C@H](CCCNC(=N)N)NC(=O)[C@@H](N)Cc1c[nH]c2ccccc12)C(=O)N[C@@H](CCCNC(=N)N)C(=O)N[C@@H](CCCNC(=N)N)C(=O)N[C@@H](CCCNC(=N)N)C(=O)N[C@@H](Cc1c[nH]c2ccccc12)C(=O)N1CCC[C@H]1C(=O)N[C@@H](CCCNC(=N)N)C(=O)N[C@@H](CC(C)C)C(=O)N1CCC[C@H]1C(=O)N[C@@H](CCCNC(=N)N)C(=O)N1CCC[C@H]1C(=O)N[C@@H](CCCNC(=N)N)C(=O)N[C@@H](Cc1c[nH]c2ccccc12)C(=O)N[C@@H](CCCNC(=N)N)C(=O)O [B7-005] (H-WRIRRRWPRLPRPRWR-OH), the IC50 (HaCaT cells) is listed as under 128 µM, the “concentration up to which MG-63 cells remained unaffected” value ([1]; equivalent of 128 µg ml^−1, ref [35]) is listed as at least 54 µM and the “concentration up to which MG-63 cells remained unaffected” value ([1]; ref [35]) is listed as at least 128 µg/mL. For the same compound, the “proteolytic degradation by serum proteases” value [2] was “excluded rapid proteolytic degradation”.
